Assay results as given in patent US12077503B2, “Substituted cyclic amides and their use as herbicides” (FMC CORPORATION, priority 2015, dated 2024).

Columns and labels:
Format in all cases: in vivo
Kochia (Kochia scoparia) [1] = test: Test A preemergence; details: for Kochia plant response rating (0 to 100 scale, 0 is no effect, 100 is complete control): visual injury approx. 10 d
In short: (§1)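 Visual injury, scored on a 0–100 scale relative to untreated controls, was recorded about 10 d after application. Treatments were a preemergence soil spray over planted seeds or a postemergence spray on plants at the one- to two-leaf stage, 2 to 10 cm tall, all in loam soil–sand blend in the greenhouse.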

[2] = test system: barnyardgrass (Echinochloa crus-galli); test: Test A preemergence; details: for Barnyardgrass plant response rating (0 to 100 scale, 0 is no effect, 100 is complete control): visual injury approx. 10 d
In short: as §1

[3] = test system: giant foxtail (Setaria faberii); test: Test A preemergence; details: for Foxtail, Giant plant response rating (0 to 100 scale, 0 is no effect, 100 is complete control): visual injury approx. 10 d
In short: as §1

[4] = test system: pigweed (Amaranthus retroflexus); test: Test A preemergence; details: for Pigweed plant response rating (0 to 100 scale, 0 is no effect, 100 is complete control): visual injury approx. 10 d
[5] = test system: ragweed (common ragweed, Ambrosia elatior); test: Test A preemergence; details: for Ragweed plant response rating (0 to 100 scale, 0 is no effect, 100 is complete control): visual injury approx. 10 d
In short: as §1

[6] = test system: ryegrass, Italian (Italian ryegrass, Lolium multiflorum); test: Test A preemergence; details: for Ryegrass, Italian plant response rating (0 to 100 scale, 0 is no effect, 100 is complete control): visual injury approx. 10 d
In short: as §1

[7] = test system: Galium (catchweed bedstraw, Galium aparine); test: Test A postemergence
In short: as §1

Kochia (Kochia scoparia) [8] = test: Test A postemergence
In short: as §1

[9] = test system: barnyardgrass (Echinochloa crus-galli); test: Test A postemergence; details: for Barnyardgrass plant response rating: visual injury rating on 0 to 100 scale (0 no effect, 100 complete control)
In short: as §1

[10] = test system: blackgrass (Alopecurus myosuroides); test: Test A postemergence; details: for Blackgrass plant response rating: visual injury rating on 0 to 100 scale (0 no effect, 100 complete control)
In short: as §1

corn (Zea mays) = test: Test A postemergence
In short: as §1

[11] = test system: giant foxtail (Setaria faberii); test: Test A postemergence
In short: as §1

[12] = test system: pigweed (Amaranthus retroflexus); test: Test A postemergence
In short: as §1

[13] = test system: ragweed (common ragweed, Ambrosia elatior); test: Test A postemergence
In short: as §1

[14] = test system: ryegrass, Italian (Italian ryegrass, Lolium multiflorum); test: Test A postemergence
In short: as §1

[15] = test system: wheat (Triticum aestivum); test: Test A postemergence
In short: as §1

[16] = test system: barnyardgrass (Echinochloa crus-galli); test: Test B flooded paddy test; details: Flood, 250 g ai/ha; 0 to 100 scale where 0 is no effect and 100 is complete control; 13 to 15 d
In short: (§2)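 Percent control, visually estimated after 13–15 d in the greenhouse on a 0–100 basis, compares treated pots with untreated ones; compound was put into paddy water 3 cm above the soil when plants had two leaves.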

[17] = test system: ducksalad (Heteranthera limosa); test: Test B flooded paddy test; details: Flood, 250 g ai/ha; 0 to 100 scale where 0 is no effect and 100 is complete control; 13 to 15 d
In short: as §2

rice (Oryra sativa) = test: Test B flooded paddy test; details: Flood, 250 g ai/ha; 0 to 100 scale where 0 is no effect and 100 is complete control; 13 to 15 d
In short: as §2

[18] = test system: sedge, umbrella (small-flower umbrella sedge, Cyperus difformis); test: Test B flooded paddy test; details: Flood, 250 g ai/ha; 0 to 100 scale where 0 is no effect and 100 is complete control; 13 to 15 d
In short: as §2

[19] = 125 g ai/ha, Preemergence, visual injury after approximately 10 d, 0 to 100 scale where 0 is no effect and 100 is complete control
[20] = 500 g ai/ha, preemergence, 0 to 100 scale, 0 = no effect, 100 = complete control
[21] = 125 g ai/ha, postemergence, visual rating after approx. 10 d, 0 to 100 scale (0 no effect, 100 complete control)
[22] = 500 g ai/ha, postemergence, visual injury, 0 to 100 scale (0 no effect, 100 complete control), approx. 10 d
[23] = 125 g ai/ha, preemergence, 0 to 100 scale (0 no effect, 100 complete control)
[24] = 125 g ai/ha, postemergence, visual injury rating on 0 to 100 scale (0 no effect, 100 complete control), approx. 10 d
[25] = 500 g ai/ha, postemergence, 0 to 100 scale, 0 no effect, 100 complete control
[26] = 125 g ai/ha, postemergence, approx. 10 d
[27] = Postemergence, 500 g ai/ha, 0 to 100 scale where 0 is no effect and 100 is complete control

## Cc1cccc(C2CN(C)C(=O)C2C(=O)Nc2ccccc2S(C)(=O)=O)c1 (stereo not drawn) [Compound 668]
Kochia (Kochia scoparia) [1]; [19]
  Plant response rating, Kochia: 20
Kochia (Kochia scoparia) [1]; [20]
  Plant response rating, Kochia: 70
[2]; [19]
  Plant response rating, Barnyardgrass: 90
[2]; [20]
  Plant response rating, Barnyardgrass: 90
[3]; [19]
  Plant response rating, Foxtail, Giant: 90
[3]; [20]
  Plant response rating, Foxtail, Giant: 100
[4]; [19]
  Plant response rating, Pigweed: 20
[4]; [20]
  Plant response rating, Pigweed: 50
[5]; [19]
  Plant response rating, Ragweed: 0
[5]; [20]
  Plant response rating, Ragweed: 40
[6]; [19]
  Plant response rating, Ryegrass, Italian: 0
[6]; [20]
  Plant response rating, Ryegrass, Italian: 0
[7]; [21]
  Plant response rating, Galium: 20
[7]; [22]
  Plant response rating, Galium: 70
Kochia (Kochia scoparia) [8]; [21]
  Plant response rating, Kochia: 20
Kochia (Kochia scoparia) [8]; [22]
  Plant response rating, Kochia: 20
[9]; [21]
  Plant response rating, Barnyardgrass: 90
[9]; [22]
  Plant response rating, Barnyardgrass: 90
[10]; [21]
  Plant response rating, Blackgrass: 60
[10]; [22]
  Plant response rating, Blackgrass: 70
Corn (Zea mays); [21]
  Plant response rating, Corn: 20
Corn (Zea mays); [22]
  Plant response rating, Corn: 80
[11]; [21]
  Plant response rating, Foxtail, Giant: 90
[11]; [22]
  Plant response rating, Foxtail, Giant: 90
[12]; [21]
  Plant response rating, Pigweed: 0
[12]; [22]
  Plant response rating, Pigweed: 0
[13]; [21]
  Plant response rating, Ragweed: 0
[13]; [22]
  Plant response rating, Ragweed: 0
[14]; [21]
  Plant response rating, Ryegrass, Italian: 0
[14]; [22]
  Plant response rating, Ryegrass, Italian: 70
[15]; [21]
  Plant response rating, Wheat: 20
[15]; [22]
  Plant response rating, Wheat: 60
[16]
  Plant response rating, Barnyardgrass: 70
[17]
  Plant response rating, Ducksalad: 98
Rice (Oryra sativa)
  Plant response rating, Rice: 0
[18]
  Plant response rating, Sedge, Umbrella: 0

## CN1CC(c2ccc3c(c2)OC(F)(F)O3)C(C(=O)Nc2ccc(F)cc2F)C1=O (stereo not drawn) [Compound 444]
Kochia (Kochia scoparia) [1]; [23]
  Plant response rating, Kochia: 60
Kochia (Kochia scoparia) [1]; Preemergence, 500 g ai/ha
  Kochia plant response rating (0 to 100 scale, 0 is no effect, 100 is complete control): 80
[2]; [23]
  Plant response rating, Barnyardgrass: 90
[2]; Preemergence, 500 g ai/ha
  Barnyardgrass plant response rating (0 to 100 scale, 0 is no effect, 100 is complete control): 90
[3]; [23]
  Plant response rating, Foxtail, Giant: 90
[3]; Preemergence, 500 g ai/ha
  Foxtail, Giant plant response rating (0 to 100 scale, 0 is no effect, 100 is complete control): 90
[4]; [23]
  Plant response rating, Pigweed: 80
[4]; Preemergence, 500 g ai/ha
  Pigweed plant response rating (0 to 100 scale, 0 is no effect, 100 is complete control): 80
[5]; [23]
  Plant response rating, Ragweed: 50
[5]; Preemergence, 500 g ai/ha
  Ragweed plant response rating (0 to 100 scale, 0 is no effect, 100 is complete control): 80
[6]; [23]
  Plant response rating, Ryegrass, Italian: 40
[6]; Preemergence, 500 g ai/ha
  Ryegrass, Italian plant response rating (0 to 100 scale, 0 is no effect, 100 is complete control): 90
[7]; [24]
  Galium plant response rating: 60
[7]; [25]
  Plant response rating, Galium: 70
Kochia (Kochia scoparia) [8]; [24]
  Kochia plant response rating: 40
Kochia (Kochia scoparia) [8]; [25]
  Plant response rating, Kochia: 80
[9]; [26]
  Barnyardgrass plant response rating: 80
[9]; [25]
  Plant response rating, Barnyardgrass: 90
[10]; [26]
  Blackgrass plant response rating: 70
[10]; [25]
  Plant response rating, Blackgrass: 60
Corn (Zea mays); [24]
  Corn plant response rating: 60
Corn (Zea mays); [25]
  Plant response rating, Corn: 70
[11]; [24]
  Foxtail, Giant plant response rating: 80
[11]; [25]
  Plant response rating, Foxtail, Giant: 80
[12]; [24]
  Pigweed plant response rating: 50
[12]; [25]
  Plant response rating, Pigweed: 80
[13]; [24]
  Ragweed plant response rating: 20
[13]; [25]
  Plant response rating, Ragweed: 40
[14]; [24]
  Ryegrass, Italian plant response rating: 50
[14]; [25]
  Plant response rating, Ryegrass, Italian: 80
[15]; [24]
  Wheat plant response rating: 50
[15]; [25]
  Plant response rating, Wheat: 50
[16]
  Plant response rating, Barnyardgrass: 75
[17]
  Plant response rating, Ducksalad: 100
Rice (Oryra sativa)
  Plant response rating, Rice: 0
[18]
  Plant response rating, Sedge, Umbrella: 0

## CN1CC(c2cccc(OC(F)(F)C(F)F)c2)C(C(=O)Nc2ccccc2F)C1=O (stereo not drawn) [Compound 539]
Kochia (Kochia scoparia) [1]; [19]
  Plant response rating, Kochia: 60
Kochia (Kochia scoparia) [1]; Preemergence, 500 g ai/ha
  Kochia plant response rating (0 to 100 scale, 0 is no effect, 100 is complete control): 70
[2]; [19]
  Plant response rating, Barnyardgrass: 90
[2]; Preemergence, 500 g ai/ha
  Barnyardgrass plant response rating (0 to 100 scale, 0 is no effect, 100 is complete control): 90
[3]; [19]
  Plant response rating, Foxtail, Giant: 90
[3]; Preemergence, 500 g ai/ha
  Foxtail, Giant plant response rating (0 to 100 scale, 0 is no effect, 100 is complete control): 90
[4]; [19]
  Plant response rating, Pigweed: 40
[4]; Preemergence, 500 g ai/ha
  Pigweed plant response rating (0 to 100 scale, 0 is no effect, 100 is complete control): 80
[5]; [19]
  Plant response rating, Ragweed: 0
[5]; Preemergence, 500 g ai/ha
  Ragweed plant response rating (0 to 100 scale, 0 is no effect, 100 is complete control): 70
[6]; [19]
  Plant response rating, Ryegrass, Italian: 30
[6]; Preemergence, 500 g ai/ha
  Ryegrass, Italian plant response rating (0 to 100 scale, 0 is no effect, 100 is complete control): 50
[7]; [21]
  Plant response rating, Galium: 70
[7]; [27]
  Plant response rating, Galium: 70
Kochia (Kochia scoparia) [8]; [21]
  Plant response rating, Kochia: 40
Kochia (Kochia scoparia) [8]; [27]
  Plant response rating, Kochia: 70
[9]; [26]
  Barnyardgrass plant response rating: 90
[9]; [27]
  Plant response rating, Barnyardgrass: 90
[10]; [26]
  Blackgrass plant response rating: 50
[10]; [27]
  Plant response rating, Blackgrass: 80
Corn (Zea mays); [21]
  Plant response rating, Corn: 70
Corn (Zea mays); [27]
  Plant response rating, Corn: 90
[11]; [21]
  Plant response rating, Foxtail, Giant: 90
[11]; [27]
  Plant response rating, Foxtail, Giant: 90
[12]; [21]
  Plant response rating, Pigweed: 20
[12]; [27]
  Plant response rating, Pigweed: 50
[13]; [21]
  Plant response rating, Ragweed: 0
[13]; [27]
  Plant response rating, Ragweed: 50
[14]; [21]
  Plant response rating, Ryegrass, Italian: 0
[14]; [27]
  Plant response rating, Ryegrass, Italian: 70
[15]; [21]
  Plant response rating, Wheat: 50
[15]; [27]
  Plant response rating, Wheat: 70
[16]
  Plant response rating, Barnyardgrass: 65
[17]
  Plant response rating, Ducksalad: 95
Rice (Oryra sativa)
  Plant response rating, Rice: 0
[18]
  Plant response rating, Sedge, Umbrella: 0
